Assays:
[1] = Acute toxicity in rats; details: in vivo; rat, oral administration, after one week; read-out: Acute Toxicity (LD50), C
Protocol: (§1) (1) Acute toxicity and tonic convulsion in hind paw:
(§2) The acute toxicity and tonic convulsion occured by stimulus by hand touch were determined in the following manner to give the results shown in Table 2.
(b) Acute toxicity in rats:
28 Groups, each consisting of 5 rats (male Wistar strain, weight -- 200 g), were used for the test and control groups. The compounds shown in Table 2 were orally administered to the rats. After one week, the survival ratio was measured.

[2] = test system: Cholesterol in the serum; assay: Cholesterol-lowering activity on normal rats of Wistar strain (serum cholesterol, liver weight); format: in vivo, rats (male Wistar strain); details: 0.3% in diet; for B - Ratio of decrease of liver weight: continuous administration for 4 days; for C - Ratio of decrease of cholesterol / D - Ratio of increase of liver weight: continuous administration for 14 days
Protocol: (3) Cholesteral-lowering activity on normal rats of Wistar strain:
(i) 22 Groups, each consisting of 5 rats (male Wistar strain, weight -- 150 to 180 g) were used for the test and control groups. After this, the blood samples were collected by decapitation and then the corpuscle was removed by centrifugation. Cholesterol in the serum was determined by Zurkowski's method modified by Shibata and also the liver was excised and weighed. The results are shown in Table 4 wherein the ratio of 100% denotes the amount of chloresterol and the weight of the liver of normal rats fed with powdery diet without the addition of the compound.

[3] = test system: hyperlipemia induced by Triton; assay: Cholesterol-lowering activity on hyperlipemia induced by Triton in mice; format: in vivo, mice (male dd-strain); details: Mus musculus, po, 43 h, read-out: Ratio of the reduction of cholesterol
Protocol: (2) Cholesterol-Lowering activity on hyperlipemia induced by Triton in mice:
38 Groups, each consisting of 9 mice (male dd-strain, weight -- 19 to 21 g), were used for the test and control groups. […] Immediately after the administration and also after 20 hours from the administration of Triton, the mice were orally administered with 100 mg/kg of the compound shown in Table 3. 43 hours after the administration of Triton, the blood samples were collected by decapitation and then the corpuscle was removed by centrifugation. Cholesterol in the serum was determined by Zurkowski's method modified by Shibata (color of the test solution was developed by using sulfoalicyclic acid, acetic acid and sulfuric acid and the optical density of the solution was determined at 620 mμ.

[4] = test system: Mouse; assay: Tonic convulsion of hind paw of mice (stimulus by hand touch); format: in vivo, mice (male dd-strain); details: oral, 30 to 360 minutes
Protocol: as §1, §2
(c) Tonic convulsion of hind paw of mice:
38 Groups, each consisting of 5 mice (male dd-strain, weight -- 18 to 24 g), were used for the test and control groups. The compounds shown in Table 2 were orally administered to the mice. At 30, 60, 120, 180 and 360 minutes after the administration, stimulus by hand touch was given to the mice and the tonic convulsion was observed.

[5] = Acute toxicity in mice; details: in vivo; mouse, oral administration, after one week; read-out: Acute Toxicity (LD50), A
Protocol: as §1, §2
(a) Acute toxicity in mice:
38 Groups, each consisting of 5 mice (male dd-strain, weight -- 18 to 24 g), were used for the test and control groups. The compounds shown in Table 2 were administered orally or intraperitoneally to the mice. After one week, the survival ratio was measured.

Row | Compound | LD50 at 168 h [1] [mg/kg] | B - Ratio of decrease of liver weight [2] [%] | inhibition in vivo at 100 mg/kg [3] [%] | Tonic convulsion ([4]; D = 1000 mg/kg) | LD50 at 168 h [5] [mg/kg] | C - Ratio of decrease of cholesterol [2] [%] | D - Ratio of increase of liver weight [2] [%] | Tonic convulsion ([4]; D = 500 mg/kg)
1 | O=C(NC(Cc1ccccc1)C(=O)O)SCc1ccccc1 (racemic) [Compound 17, N-benzylthiocarbonyl-D,L-phenylalanine] | > 100 | 35.2 | 95 | + | > 1000 |  |  | 
2 | COC(=O)[C@H](Cc1ccccc1)NC(=O)SCc1ccccc1 [Compound 18, N-benzylthiocarbonyl-L-phenylalanine methylester] | > 200 | 39 | 80 |  | > 1000 | 3.0 | 92 | +
3 | O=C(N[C@@H](Cc1ccccc1)C(=O)O)SCc1ccccc1 [Compound 16, N-benzylthiocarbonyl-L-phenylalanine] | > 200 |  | 86 |  | > 1000 | 9.2 | 79 | +
4 | COC(=O)[C@H](Cc1ccccc1)NC(=O)SCc1ccc(F)cc1 [Compound 12, N-(4-fluorobenzylthiocarbonyl)-L-phenylalanine methylester] | > 100 | 45.9 | 76 | + | > 1000 |  |  | 
5 | COC(=O)[C@H](Cc1ccccc1)NC(=O)SCc1ccccc1C [Compound 21, N-(2-methylbenzylthiocarbonyl)-L-phenylalanine methylester] |  |  | 43 | + | > 1000 |  |  | 
